{
  "source": "ChEMBL document CHEMBL5291721",
  "about": "“A preclinical secondary pharmacology resource illuminates target-adverse drug reaction associations of marketed drugs” (Nat Commun, 2023); also: assay procedure not described here",
  "key": {"[1]": {"biological_target": "T1, Muscarinic acetylcholine receptor M2 (Homo sapiens, UniProt P08172)", "T1 sequence (P08172 whole entry)": "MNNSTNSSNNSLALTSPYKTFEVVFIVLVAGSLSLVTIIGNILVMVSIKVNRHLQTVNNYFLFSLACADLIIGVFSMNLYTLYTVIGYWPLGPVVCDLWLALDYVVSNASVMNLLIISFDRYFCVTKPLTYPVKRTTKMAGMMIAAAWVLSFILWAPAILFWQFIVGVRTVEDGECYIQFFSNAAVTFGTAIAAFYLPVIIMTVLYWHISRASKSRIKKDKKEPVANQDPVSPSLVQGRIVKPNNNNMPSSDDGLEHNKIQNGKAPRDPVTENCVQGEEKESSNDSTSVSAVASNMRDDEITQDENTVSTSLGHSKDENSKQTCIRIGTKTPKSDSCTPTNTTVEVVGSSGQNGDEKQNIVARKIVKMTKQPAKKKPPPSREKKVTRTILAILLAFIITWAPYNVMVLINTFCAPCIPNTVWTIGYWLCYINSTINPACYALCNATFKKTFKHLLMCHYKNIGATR"}, "[2]": {"biological_target": "T2, Endothelin receptor type B (Homo sapiens, UniProt P24530)", "T2 sequence (P24530 whole entry)": "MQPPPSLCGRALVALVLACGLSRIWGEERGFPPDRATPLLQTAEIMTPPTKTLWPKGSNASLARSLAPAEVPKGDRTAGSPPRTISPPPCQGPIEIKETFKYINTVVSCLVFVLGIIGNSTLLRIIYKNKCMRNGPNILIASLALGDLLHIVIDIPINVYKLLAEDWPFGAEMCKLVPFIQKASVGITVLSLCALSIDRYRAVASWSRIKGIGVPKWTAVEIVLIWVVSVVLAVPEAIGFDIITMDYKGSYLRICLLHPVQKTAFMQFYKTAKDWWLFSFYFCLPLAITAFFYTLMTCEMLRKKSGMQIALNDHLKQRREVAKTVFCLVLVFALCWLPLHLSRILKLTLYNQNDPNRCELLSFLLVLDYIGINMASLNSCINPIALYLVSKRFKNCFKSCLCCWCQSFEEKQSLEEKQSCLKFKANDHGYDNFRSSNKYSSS"}, "[3]": {"biological_target": "T3, Gastric inhibitory polypeptide receptor (Homo sapiens, UniProt P48546)", "T3 sequence (P48546 whole entry)": "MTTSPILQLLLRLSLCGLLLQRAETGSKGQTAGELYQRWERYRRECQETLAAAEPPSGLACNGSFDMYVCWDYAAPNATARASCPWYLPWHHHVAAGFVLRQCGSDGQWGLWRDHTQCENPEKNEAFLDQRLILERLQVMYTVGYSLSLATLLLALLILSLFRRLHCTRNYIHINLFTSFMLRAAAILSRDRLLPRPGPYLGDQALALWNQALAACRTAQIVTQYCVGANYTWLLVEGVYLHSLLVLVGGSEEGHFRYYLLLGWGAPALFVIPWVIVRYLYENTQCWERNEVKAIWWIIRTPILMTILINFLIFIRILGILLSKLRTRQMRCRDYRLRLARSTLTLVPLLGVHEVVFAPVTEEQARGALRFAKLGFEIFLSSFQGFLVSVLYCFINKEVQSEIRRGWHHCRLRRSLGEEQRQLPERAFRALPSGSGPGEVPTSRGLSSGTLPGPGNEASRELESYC"}, "[4]": {"biological_target": "T4, B1 bradykinin receptor (Homo sapiens, UniProt P46663)", "T4 sequence (P46663 whole entry)": "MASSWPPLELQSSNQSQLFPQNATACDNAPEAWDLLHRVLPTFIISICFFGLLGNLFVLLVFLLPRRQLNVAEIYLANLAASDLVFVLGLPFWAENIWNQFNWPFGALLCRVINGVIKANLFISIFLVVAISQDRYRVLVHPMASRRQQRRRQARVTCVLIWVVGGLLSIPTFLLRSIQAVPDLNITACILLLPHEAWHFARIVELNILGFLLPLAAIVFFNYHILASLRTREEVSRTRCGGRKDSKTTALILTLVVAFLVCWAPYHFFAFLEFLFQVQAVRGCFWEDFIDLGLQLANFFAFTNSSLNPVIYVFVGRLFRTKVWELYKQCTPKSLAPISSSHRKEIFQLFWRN"}, "[5]": {"biological_target": "Sodium channel protein type 5 subunit alpha (Homo sapiens, UniProt Q14524)", "sequence (Q14524 whole entry)": "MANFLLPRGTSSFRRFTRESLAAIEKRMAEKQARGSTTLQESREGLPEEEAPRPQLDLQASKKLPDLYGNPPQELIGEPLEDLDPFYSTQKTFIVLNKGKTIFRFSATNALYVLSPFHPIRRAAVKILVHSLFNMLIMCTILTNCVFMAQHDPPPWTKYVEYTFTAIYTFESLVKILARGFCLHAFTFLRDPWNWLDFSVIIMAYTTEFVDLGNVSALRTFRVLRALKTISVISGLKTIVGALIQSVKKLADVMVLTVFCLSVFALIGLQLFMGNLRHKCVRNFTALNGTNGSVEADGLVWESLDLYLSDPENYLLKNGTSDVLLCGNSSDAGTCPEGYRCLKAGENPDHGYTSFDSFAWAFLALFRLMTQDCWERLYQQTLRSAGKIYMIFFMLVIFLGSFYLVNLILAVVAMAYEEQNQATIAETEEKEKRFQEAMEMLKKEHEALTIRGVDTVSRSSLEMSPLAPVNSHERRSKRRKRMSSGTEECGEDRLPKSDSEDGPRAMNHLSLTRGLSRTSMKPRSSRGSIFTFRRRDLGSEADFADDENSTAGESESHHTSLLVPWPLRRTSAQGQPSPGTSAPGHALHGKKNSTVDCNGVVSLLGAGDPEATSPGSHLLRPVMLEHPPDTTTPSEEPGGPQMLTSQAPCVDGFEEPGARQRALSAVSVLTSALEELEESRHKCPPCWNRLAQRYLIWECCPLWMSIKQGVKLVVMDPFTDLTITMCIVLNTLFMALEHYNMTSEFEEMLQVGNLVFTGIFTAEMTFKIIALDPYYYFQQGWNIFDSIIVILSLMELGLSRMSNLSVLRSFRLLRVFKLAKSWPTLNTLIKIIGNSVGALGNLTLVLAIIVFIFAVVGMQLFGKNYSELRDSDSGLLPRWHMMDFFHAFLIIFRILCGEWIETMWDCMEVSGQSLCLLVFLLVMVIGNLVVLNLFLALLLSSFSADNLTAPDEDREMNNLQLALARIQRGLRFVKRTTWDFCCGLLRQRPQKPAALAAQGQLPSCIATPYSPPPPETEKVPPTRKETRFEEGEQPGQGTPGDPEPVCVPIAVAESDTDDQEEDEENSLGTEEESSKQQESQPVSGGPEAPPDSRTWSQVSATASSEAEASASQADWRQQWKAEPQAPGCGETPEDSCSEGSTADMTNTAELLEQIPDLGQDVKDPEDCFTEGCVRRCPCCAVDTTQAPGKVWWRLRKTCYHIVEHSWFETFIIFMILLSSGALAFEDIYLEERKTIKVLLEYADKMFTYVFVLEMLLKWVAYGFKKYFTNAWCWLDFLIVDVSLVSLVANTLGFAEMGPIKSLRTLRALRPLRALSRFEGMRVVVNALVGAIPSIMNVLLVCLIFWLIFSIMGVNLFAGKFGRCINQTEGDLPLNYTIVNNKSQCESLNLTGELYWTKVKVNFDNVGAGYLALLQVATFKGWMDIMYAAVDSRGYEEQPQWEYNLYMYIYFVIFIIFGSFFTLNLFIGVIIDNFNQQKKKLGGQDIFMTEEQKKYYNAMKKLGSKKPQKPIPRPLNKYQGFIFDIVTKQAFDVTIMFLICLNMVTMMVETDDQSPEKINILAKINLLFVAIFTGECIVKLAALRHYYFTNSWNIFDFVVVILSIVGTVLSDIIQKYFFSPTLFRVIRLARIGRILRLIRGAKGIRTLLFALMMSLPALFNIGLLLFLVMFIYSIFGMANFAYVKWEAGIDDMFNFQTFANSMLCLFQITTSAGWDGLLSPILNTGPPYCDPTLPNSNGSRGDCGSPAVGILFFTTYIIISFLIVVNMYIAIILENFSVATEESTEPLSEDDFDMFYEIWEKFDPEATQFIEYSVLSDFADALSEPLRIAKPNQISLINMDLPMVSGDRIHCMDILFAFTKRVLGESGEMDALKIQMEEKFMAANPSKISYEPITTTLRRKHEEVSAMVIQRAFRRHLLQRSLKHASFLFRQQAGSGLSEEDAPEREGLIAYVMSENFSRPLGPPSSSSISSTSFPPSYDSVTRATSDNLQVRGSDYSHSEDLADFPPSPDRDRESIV", "format": "functional, cell-based"}, "[6]": {"biological_target": "Neurotensin receptor type 1 (Homo sapiens, UniProt P30989)", "sequence (P30989 whole entry)": "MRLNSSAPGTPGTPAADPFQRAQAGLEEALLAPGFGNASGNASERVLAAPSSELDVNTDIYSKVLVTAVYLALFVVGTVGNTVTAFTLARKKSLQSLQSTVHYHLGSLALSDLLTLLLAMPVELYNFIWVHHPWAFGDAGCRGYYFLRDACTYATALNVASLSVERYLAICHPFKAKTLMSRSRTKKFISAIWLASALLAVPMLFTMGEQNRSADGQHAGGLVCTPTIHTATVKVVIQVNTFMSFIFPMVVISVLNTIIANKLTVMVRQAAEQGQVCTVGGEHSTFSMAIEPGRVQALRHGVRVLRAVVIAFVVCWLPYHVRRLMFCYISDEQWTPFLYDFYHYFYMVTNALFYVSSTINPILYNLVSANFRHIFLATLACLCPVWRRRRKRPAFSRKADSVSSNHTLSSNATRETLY"}, "[7]": {"biological_target": "T5, Progesterone receptor (Homo sapiens, UniProt P06401)", "T5 sequence (P06401 whole entry)": "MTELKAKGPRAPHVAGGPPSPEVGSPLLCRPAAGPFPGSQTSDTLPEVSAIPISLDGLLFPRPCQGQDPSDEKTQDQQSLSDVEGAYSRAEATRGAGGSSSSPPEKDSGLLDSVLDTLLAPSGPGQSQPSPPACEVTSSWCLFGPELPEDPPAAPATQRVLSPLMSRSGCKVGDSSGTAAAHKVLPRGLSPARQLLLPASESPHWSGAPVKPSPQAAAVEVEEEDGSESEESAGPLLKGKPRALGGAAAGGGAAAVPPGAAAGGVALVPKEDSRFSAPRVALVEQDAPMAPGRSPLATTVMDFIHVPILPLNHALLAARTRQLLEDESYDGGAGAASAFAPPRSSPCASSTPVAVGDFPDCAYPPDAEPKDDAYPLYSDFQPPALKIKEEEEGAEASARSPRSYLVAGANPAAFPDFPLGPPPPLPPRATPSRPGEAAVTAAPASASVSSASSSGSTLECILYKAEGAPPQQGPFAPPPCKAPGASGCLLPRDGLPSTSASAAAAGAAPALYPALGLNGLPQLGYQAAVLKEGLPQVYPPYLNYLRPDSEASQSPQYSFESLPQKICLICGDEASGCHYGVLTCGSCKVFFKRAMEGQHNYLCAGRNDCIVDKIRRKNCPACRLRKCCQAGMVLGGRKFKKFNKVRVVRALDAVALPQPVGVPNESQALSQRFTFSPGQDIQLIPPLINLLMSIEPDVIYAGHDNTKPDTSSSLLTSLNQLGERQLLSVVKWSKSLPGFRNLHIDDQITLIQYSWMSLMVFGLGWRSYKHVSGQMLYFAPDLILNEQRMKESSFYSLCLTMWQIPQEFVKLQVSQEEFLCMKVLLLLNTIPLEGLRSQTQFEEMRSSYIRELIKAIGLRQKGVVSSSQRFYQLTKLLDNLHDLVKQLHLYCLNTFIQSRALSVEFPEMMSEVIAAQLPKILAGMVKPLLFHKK"}, "[8]": {"biological_target": "cGMP-inhibited 3',5'-cyclic phosphodiesterase 3A (Homo sapiens, UniProt Q14432)", "sequence (Q14432 whole entry)": "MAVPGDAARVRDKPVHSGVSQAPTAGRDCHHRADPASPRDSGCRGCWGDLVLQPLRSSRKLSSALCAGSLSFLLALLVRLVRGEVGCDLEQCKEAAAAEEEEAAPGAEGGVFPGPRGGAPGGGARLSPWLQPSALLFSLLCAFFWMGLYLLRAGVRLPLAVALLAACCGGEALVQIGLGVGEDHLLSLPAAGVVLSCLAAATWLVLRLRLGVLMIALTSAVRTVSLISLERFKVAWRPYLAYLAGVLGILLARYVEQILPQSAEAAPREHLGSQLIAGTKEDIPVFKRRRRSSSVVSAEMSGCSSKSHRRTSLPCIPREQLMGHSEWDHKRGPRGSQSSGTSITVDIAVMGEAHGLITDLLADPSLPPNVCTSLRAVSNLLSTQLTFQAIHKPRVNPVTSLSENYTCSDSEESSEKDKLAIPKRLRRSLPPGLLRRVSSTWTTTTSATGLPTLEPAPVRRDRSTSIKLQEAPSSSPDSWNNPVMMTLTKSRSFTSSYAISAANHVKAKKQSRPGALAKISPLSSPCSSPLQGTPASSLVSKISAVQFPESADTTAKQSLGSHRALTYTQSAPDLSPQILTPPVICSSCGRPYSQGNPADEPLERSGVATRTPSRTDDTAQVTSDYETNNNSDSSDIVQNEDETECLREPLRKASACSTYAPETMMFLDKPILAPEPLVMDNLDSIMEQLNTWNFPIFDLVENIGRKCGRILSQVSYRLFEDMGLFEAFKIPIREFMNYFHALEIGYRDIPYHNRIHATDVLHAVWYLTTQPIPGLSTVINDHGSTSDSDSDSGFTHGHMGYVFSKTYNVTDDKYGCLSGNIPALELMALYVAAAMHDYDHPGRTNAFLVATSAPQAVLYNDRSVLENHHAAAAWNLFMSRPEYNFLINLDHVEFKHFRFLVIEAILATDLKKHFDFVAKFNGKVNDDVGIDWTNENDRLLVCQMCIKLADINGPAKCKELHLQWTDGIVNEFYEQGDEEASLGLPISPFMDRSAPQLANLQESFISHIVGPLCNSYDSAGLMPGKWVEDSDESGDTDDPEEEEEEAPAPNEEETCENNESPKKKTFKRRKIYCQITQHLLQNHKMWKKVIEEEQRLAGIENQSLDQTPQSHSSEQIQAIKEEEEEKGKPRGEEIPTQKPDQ", "format": "functional"}, "[9]": {"biological_target": "Sodium-dependent dopamine transporter (Homo sapiens, UniProt Q01959)", "sequence (Q01959 whole entry)": "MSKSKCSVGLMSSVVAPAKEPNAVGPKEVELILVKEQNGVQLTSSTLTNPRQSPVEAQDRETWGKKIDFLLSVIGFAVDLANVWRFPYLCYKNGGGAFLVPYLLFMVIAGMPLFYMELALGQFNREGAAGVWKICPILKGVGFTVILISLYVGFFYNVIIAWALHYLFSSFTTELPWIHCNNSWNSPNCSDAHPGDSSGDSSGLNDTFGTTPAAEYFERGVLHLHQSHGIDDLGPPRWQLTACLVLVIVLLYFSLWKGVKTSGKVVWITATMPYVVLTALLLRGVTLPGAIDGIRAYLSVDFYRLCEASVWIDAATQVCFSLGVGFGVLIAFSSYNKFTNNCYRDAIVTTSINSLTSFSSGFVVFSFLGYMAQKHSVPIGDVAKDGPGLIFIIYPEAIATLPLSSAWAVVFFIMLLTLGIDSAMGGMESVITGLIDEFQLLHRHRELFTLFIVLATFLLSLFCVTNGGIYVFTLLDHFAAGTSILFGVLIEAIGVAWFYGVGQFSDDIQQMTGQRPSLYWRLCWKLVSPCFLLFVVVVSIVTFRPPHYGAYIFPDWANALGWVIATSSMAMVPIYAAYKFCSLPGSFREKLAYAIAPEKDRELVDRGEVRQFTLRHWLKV"}, "[10]": {"biological_target": "Sodium-dependent noradrenaline transporter (Homo sapiens, UniProt P23975)", "sequence (P23975 whole entry)": "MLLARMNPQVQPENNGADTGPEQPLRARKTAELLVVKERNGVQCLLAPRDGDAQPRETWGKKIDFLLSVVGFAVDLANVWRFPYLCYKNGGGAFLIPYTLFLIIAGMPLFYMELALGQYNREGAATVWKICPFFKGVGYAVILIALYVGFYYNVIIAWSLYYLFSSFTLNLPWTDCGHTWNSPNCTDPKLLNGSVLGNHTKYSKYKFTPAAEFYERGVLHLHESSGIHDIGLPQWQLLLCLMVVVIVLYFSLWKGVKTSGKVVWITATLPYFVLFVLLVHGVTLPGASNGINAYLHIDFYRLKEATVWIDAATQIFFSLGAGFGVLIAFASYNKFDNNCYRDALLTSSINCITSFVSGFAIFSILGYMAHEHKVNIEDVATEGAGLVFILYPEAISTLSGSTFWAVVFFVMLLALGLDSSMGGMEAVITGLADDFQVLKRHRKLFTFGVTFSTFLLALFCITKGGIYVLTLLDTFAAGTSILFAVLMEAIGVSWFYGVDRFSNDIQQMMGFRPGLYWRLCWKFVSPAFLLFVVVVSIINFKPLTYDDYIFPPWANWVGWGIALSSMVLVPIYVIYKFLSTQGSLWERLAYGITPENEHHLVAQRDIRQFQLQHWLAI"}},
  "data": [
    {"compound": "Clc1ccccc1C(c1ccccc1)(c1ccccc1)n1ccnc1", "note": "[CLOTRIMAZOLE]", "values": [
      {"measurement": "AC50", "setting": "[1]", "result": "> 10", "unit": "µM"}
    ]},
    {"compound": "Cc1c(OCC(F)(F)F)ccnc1C[S+]([O-])c1nc2ccccc2[nH]1", "note": "(stereo not given) [LANSOPRAZOLE]", "values": [
      {"measurement": "AC50", "setting": "[2]", "result": "> 30", "unit": "µM"},
      {"measurement": "AC50", "setting": "[3]", "result": "> 30", "unit": "µM"},
      {"measurement": "AC50", "setting": "[4]", "result": "> 30", "unit": "µM"},
      {"measurement": "AC50", "setting": "[5]", "result": "> 30", "unit": "µM"},
      {"measurement": "AC50", "setting": "[6]", "result": "> 30", "unit": "µM"}
    ]},
    {"compound": "CO[C@]12C[C@@H](COC(=O)c3cncc(Br)c3)CN(C)[C@@H]1Cc1cn(C)c3cccc2c13", "note": "[NICERGOLINE]", "values": [
      {"measurement": "AC50", "setting": "[7]", "result": "> 30", "unit": "µM"},
      {"measurement": "AC50", "setting": "[8]", "result": "> 30", "unit": "µM"},
      {"measurement": "AC50", "setting": "[9]", "result": 11.2, "unit": "µM"},
      {"measurement": "AC50", "setting": "[10]", "result": 11.1, "unit": "µM"}
    ]},
    {"compound": "CC/C(=C(\\c1ccccc1)c1ccc(OCCN(C)C)cc1)c1ccccc1", "note": "[TAMOXIFEN]", "values": [
      {"measurement": "AC50", "setting": "[1]", "result": "> 10", "unit": "µM"}
    ]},
    {"compound": "COc1cccc(C2(O)CCCCC2CN(C)C)c1", "note": "(stereo not given) [TRAMADOL]", "values": [
      {"measurement": "AC50", "setting": "[2]", "result": "> 30", "unit": "µM"},
      {"measurement": "AC50", "setting": "[3]", "result": "> 30", "unit": "µM"},
      {"measurement": "AC50", "setting": "[4]", "result": "> 30", "unit": "µM"},
      {"measurement": "AC50", "setting": "[6]", "result": "> 30", "unit": "µM"}
    ]},
    {"compound": "THIMEROSAL", "values": [
      {"measurement": "AC50", "setting": "[7]", "result": "> 30", "unit": "µM"},
      {"measurement": "AC50", "setting": "[8]", "result": "> 30", "unit": "µM"},
      {"measurement": "AC50", "setting": "[5]", "result": "> 50", "unit": "µM"},
      {"measurement": "AC50", "setting": "[9]", "result": "> 30", "unit": "µM"},
      {"measurement": "AC50", "setting": "[10]", "result": "> 30", "unit": "µM"}
    ]}
  ]
}
